Experimental data: US9771334B2, “Triketone compound and preparation method and use thereof” (SHANDONG CYNDA CHEMICAL CO., LTD., priority 2013, dated 2017)

Columns and labels:
Test in all cases: Herbicidal activity, pot culture method (primary and secondary screening test)
Format in all cases: in vivo
Conditions in all cases: primary screening, pot culture, 150 g/ha, sprayed at 3-leaf stage, result 15 days later
[1] = system: digitaria sanguinalis
Text: (§1) This test example is for describing the herbicidal activity inhibition ratio (%) (the dose is 150 g/ha) of the compound with a structure shown in Formula (I). Primary screening test (pot culture method): The test targets are abutilon theophrasti, digitaria sanguinalis, amaranthus retroflexus, echinochloa crusgalli, eclipta prostrata and setaria viridis. Take flowerpots with an inner diameter of 6 cm, put composite soil (vegetable garden soil:seedling matrix=1:2, v/v) into them till 3⁄4 of flowerpot height, directly sow the above six weed targets (budding rate>85%), cover them with 0.2 cm thick soil, and keep them for future use when the weeds grow to 3-leaf stage. Each compound is dissolved in N,N-dimethylformamide at a dose of 150 g/ha and diluted with distilled water into a 0.2 g/L solution. The solution is sprayed through an automatic spray tower. After the solution on weed leaves is aired dry, the flowerpots are moved into a greenhouse for cultivation. The result is investigated 15 days later. By the same method adopted in primary screening test, a secondary screening test is done on some typical compounds, such as: 5, 6, 20, 21, 23, 34, 47, 65, 66, 70 and 91 at a reduced dose, and the test result is compared with mesotrione which is commercially available and has a good herbicidal effect. The test method is same as that adopted in primary screening test. Mesotrione is bought from Hubei […] Chemical Co., Ltd.

[2] = system: abutilon theophrasti
Text: as §1

[3] = system: echinochloa crusgalli
Text: as §1

[4] = system: eclipta prostrata
Text: as §1

[5] = system: amaranthus retroflexus
Text: as §1

[6] = system: setaria viridis
Text: as §1

Structure (SMILES)	herbicidal activity inhibition ratio (%), Digitaria sanguinalis [1]	herbicidal activity inhibition ratio (%), Abutilon theophrasti [2]	herbicidal activity inhibition ratio (%), Echinochloa crusgalli [3]	herbicidal activity inhibition ratio (%), Eclipta prostrata [4]	herbicidal activity inhibition ratio (%), Amaranthus retroflexus [5]	herbicidal activity inhibition ratio (%), Setaria viridis [6]
Cc1cccc(-n2c(=O)c3cc(C(=O)C4=C(O)CC(C)CC4=O)ccc3n(C)c2=O)c1 (stereo not drawn) [Compound 19]	85%	75%	70%	85%	100%	100%
COc1ccc(-n2c(=O)c3cc(C(=O)C4=C(O)CC(C)(C)CC4=O)ccc3n(C)c2=O)cc1 [Compound 58]	88%	100%	80%	68%	90%	60%
Cn1c(=O)n(-c2ccc(F)cc2)c(=O)c2cc(C(=O)C3=C(O)CC(C)(C)CC3=O)ccc21 [Compound 22]	95%	100%	80%	90%	100%	95%
Cn1c(=O)n(-c2ccc(F)cc2)c(=O)c2cc(C(=O)C3=C(O)CCCC3=O)ccc21 [Compound 9]	75%	100%	85%	95%	100%	100%
Cn1c(=O)n(-c2ccccc2F)c(=O)c2cc(C(=O)C3=C(O)CCCC3=O)ccc21 [Compound 12]	80%	85%	80%	80%	80%	100%
CCc1ccccc1-n1c(=O)c2cc(C(=O)C3=C(O)CC(C)(C)CC3=O)ccc2n(C)c1=O [Compound 89]	60%	100%	80%	70%	100%	75%
C#CCn1c(=O)n(-c2ccccc2C)c(=O)c2cc(C(=O)C3=C(O)CC(C)(C)CC3=O)ccc21 [Compound 78]	0%	0%	0%	0%	0%	10%
Cc1cccc(C)c1-n1c(=O)c2c(C)c(C(=O)C3=C(O)CCCC3=O)ccc2n(C)c1=O [Compound 93]	100%	100%	100%	100%	100%	100%
Cc1ccc(-n2c(=O)c3cc(C(=O)C4=C(O)CC(C)(C)CC4=O)ccc3n(C)c2=O)cc1 [Compound 15]	75%	60%	70%	60%	70%	75%
Cc1ccc(-n2c(=O)c3cc(C(=O)C4=C(O)CC(C)CC4=O)ccc3n(C)c2=O)cc1 (stereo not drawn) [Compound 16]	100%	70%	85%	75%	70%	100%
Cn1c(=O)n(-c2ccccc2)c(=O)c2cc(C(=O)C3=C(O)CC(C)(C)CC3=O)ccc21 [Compound 40]	85%	100%	78%	80%	95%	45%
COc1cccc(-n2c(=O)c3cc(C(=O)C4=C(O)CC(C)(C)CC4=O)ccc3n(C)c2=O)c1 [Compound 56]	55%	55%	60%	75%	80%	60%
Cn1c(=O)n(-c2cc(C(F)(F)F)ccc2Cl)c(=O)c2cc(C(=O)C3=C(O)CC(C)(C)CC3=O)ccc21 [Compound 61]	25%	65%	0%	20%	0%	10%
Cn1c(=O)n(-c2cc(C(F)(F)F)ccc2Cl)c(=O)c2cc(C(=O)C3=C(O)CCCC3=O)ccc21 [Compound 60]	40%	100%	65%	0%	70%	80%
Cn1c(=O)n(-c2ccc(C(F)(F)F)cc2)c(=O)c2cc(C(=O)C3=C(O)CCCC3=O)ccc21 [Compound 30]	60%	100%	85%	60%	100%	30%
Cn1c(=O)n(-c2cccc(Cl)c2)c(=O)c2cc(C(=O)C3=C(O)CC(C)(C)CC3=O)ccc21 [Compound 4]	100%	100%	85%	90%	100%	90%
CC1CC(=O)C(C(=O)c2ccc3c(c2)c(=O)n(-c2ccc(Cl)cc2Cl)c(=O)n3C)=C(O)C1 (stereo not drawn) [Compound 64]	60%	95%	90%	0%	80%	93%
Cn1c(=O)n(-c2ccc(Cl)cc2Cl)c(=O)c2cc(C(=O)C3=C(O)CC(C)(C)CC3=O)ccc21 [Compound 63]	20%	100%	25%	50%	30%	30%
Cn1c(=O)n(-c2ccccc2C(F)(F)F)c(=O)c2cc(C(=O)C3=C(O)CCCC3=O)ccc21 [Compound 38]	85%	90%	90%	75%	100%	80%
Cc1c(C(=O)C2=C(O)CCCC2=O)ccc2c1c(=O)n(-c1ccccc1C(F)(F)F)c(=O)n2C [Compound 92, 6-[(2-hydroxy-6-oxo-1-cyclohexenyl)carbonyl]-1,5-dimethyl-3-(2-(trifluoromethyl)phenyl)quinazoline-2,4(1H,3H)-dione]	100%	100%	100%	100%	100%	100%
